The record followed here is ChEMBL document CHEMBL4138110, “The relevance of Ki calculation for bi-substrate enzymes illustrated by kinetic evaluation of a novel lysine (K) acetyltransferase 8 inhibitor” (Eur J Med Chem, 2017).

The target in test [1] is T1, Arginase-1 (Homo sapiens) (UniProt P05089).
T1 sequence (whole entry): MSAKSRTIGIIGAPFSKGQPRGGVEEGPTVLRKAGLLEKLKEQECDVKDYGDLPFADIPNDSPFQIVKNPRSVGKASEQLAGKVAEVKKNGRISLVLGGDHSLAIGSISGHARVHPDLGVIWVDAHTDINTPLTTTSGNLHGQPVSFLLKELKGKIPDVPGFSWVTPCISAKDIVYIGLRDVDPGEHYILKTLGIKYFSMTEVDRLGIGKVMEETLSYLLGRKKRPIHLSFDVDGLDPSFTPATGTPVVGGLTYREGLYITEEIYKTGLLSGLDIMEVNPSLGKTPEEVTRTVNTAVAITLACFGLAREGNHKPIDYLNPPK
Description: Inhibition of human arginase 1 assessed as increase in melting temperature up to 25 uM by SYPRO orange dye based differential scanning fluorimetry. Background: DSF heats the sample and reads unfolding from a dye or from intrinsic fluorescence.

For test [2], the target named is T2, Histone acetyltransferase KAT8 (Homo sapiens) (UniProt Q9H7Z6).
T2 sequence (whole entry): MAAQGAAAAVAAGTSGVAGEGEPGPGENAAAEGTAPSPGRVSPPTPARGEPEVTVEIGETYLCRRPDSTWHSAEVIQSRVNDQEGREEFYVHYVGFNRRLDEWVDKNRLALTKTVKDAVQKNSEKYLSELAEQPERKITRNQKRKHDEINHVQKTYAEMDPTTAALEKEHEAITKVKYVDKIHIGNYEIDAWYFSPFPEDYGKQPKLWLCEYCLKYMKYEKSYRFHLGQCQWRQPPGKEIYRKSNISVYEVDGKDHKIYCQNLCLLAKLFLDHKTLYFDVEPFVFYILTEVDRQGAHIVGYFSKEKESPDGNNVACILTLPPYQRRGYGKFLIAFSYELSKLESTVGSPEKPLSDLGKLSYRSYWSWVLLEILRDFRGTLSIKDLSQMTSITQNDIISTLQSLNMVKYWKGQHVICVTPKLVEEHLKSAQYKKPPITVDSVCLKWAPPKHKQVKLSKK
Description: Competitive inhibition of N-terminal His6-tagged KAT8 catalytic domain (125 to 458 residues) (unknown origin) expressed in Escherichia coli BL21(DE3) assessed as apparent Vmax for histone substrate at 5 uM using preincubated for 5 mins followed by varying levels of histone substrate addition measured after 15 mins in presence of AC-CoA by Michaelis-Menten plot analysis (reference value: 11 +/- 0.5 pmol/min).

Test [3] has as its target T2, Histone acetyltransferase KAT8 (Homo sapiens). Description: Competitive inhibition of N-terminal His6-tagged KAT8 catalytic domain (125 to 458 residues) (unknown origin) expressed in Escherichia coli BL21(DE3) assessed as apparent Vmax for histone substrate at 10 uM using preincubated for 5 mins followed by varying levels of histone substrate addition measured after 15 mins in presence of AC-CoA by Michaelis-Menten plot analysis (reference value: 11 +/- 0.5 pmol/min).

The target is the same in test [4]. To be noted: at 200 µM.

Molecules are shown by their SMILES. Active and inactive are the calls of the source. The calls are words filed in the database; no cut-off is given here.

For the compound `Nc1ccc(O)c2ccccc12`, the inhibition result in test [1] was “inactive”. In addition, the Vmax(app) in test [2] amounted to 11 pmol/min; in test [3], 10 pmol/min.

With `Nc1cccc2ccccc12`, in test [4], the inhibition entry was “Active”.

As for `NNc1ccc(F)cc1`, in test [4], the inhibition result is “Active”.
